Values belong to the compound of their own block, whether it stands above or below them.
What was measured:
Format in all cases: physicochemical
[1] = Stability of supersaturated phloretin solution (60 ppm): crystallization onset and final concentration
Description: To assess stability performance, the solution concentration of rhoifolin was determined over time. At specific time points 4 g of the solution were sampled, filtered and mixed with 1 g of acetonitrile. The solution was injected into a Vanquish UHPLC from Thermo Scientific coupled with a UV detector. The column was an Accucore Vanquish C18+(1.5 μm, 2.1×100 mm), eluted with a mixture of acetonitrile and water at 0.3 mL/min. The elution protocol was as follows: 5% acetonitrile (3 minutes), followed by a gradient from 5% to 80% of acetonitrile in 10 minutes. The corresponding peak of Rhoifolin was integrated, and the concentration was calculated based on a previously established calibration curve. The onset of crystallization is expressed as the point where the solution concentration passes below 95% of its initial value of 100%. The value was obtained by algorithmic curve fitting. […] In this example, and throughout “d” refers to days. Aqueous solutions of Berry extract were prepared at a concentration of 25 ppm, 50 ppm, 75 ppm, and 100 ppm by dissolving dry Berry extract in 99 g of buffer solution (citrate buffer, 100 mM, pH 2.8, 0.2% sodium benzoate). Then 1 gram of stock solution of phloretin in PG at 6000 ppm was added and mixed quickly with the aqueous phase. The samples were stored at 8° C., and aliquots were removed over the course of three months. A control solution of phloretin without Berry extract was also prepared. […] Aqueous solutions were prepared in 99 gram of buffer solution (citrate buffer, 100 mM, pH 2.8, 0.2% sodium benzoate) with saponin. Then 1 gram of stock solution of phloretin in PG at 6000 ppm was added and mixed quickly with the aqueous phase. The samples stored at 8° C., and aliquots were removed over the course of 5 months. A control solution of phloretin without saponin was prepared. The concentration of saponin was 100 ppm. […] Saponin is Quillaja P (Firmenich SA).

[2] = Stability of supersaturated rhoifolin solution (20 ppm): solution concentration over time by UHPLC, onset of crystallization; conditions: for 50% / Fin. Conc. (ppm) / Onset / 50% (d), days for 50% crystallization of rhoifolin: room temperature, 40 days
Description: Aqueous solutions of various anthocyanin extracts were prepared at concentrations of 100 ppm, 200 ppm, and 300 ppm by dissolving dry anthocyanin extract in 99 g of buffer solution (citrate buffer, 100 mM, pH 2.8, 0.2% sodium benzoate). Then 1 gram of stock solution of rhoifolin in propylene glycol (PG) at 2000 ppm was added and mixed quickly with the aqueous phase. The samples were left at room temperature, and aliquots were removed over the course of three months. A control solution of rhoifolin without anthocyanin was also prepared.
To assess stability performance, the solution concentration of rhoifolin was determined over time. At specific time points 4 g of the solution were sampled, filtered and mixed with 1 g of acetonitrile. The solution was injected into a Vanquish UHPLC from Thermo Scientific coupled with a UV detector. The column was an Accucore Vanquish C18+(1.5 μm, 2.1×100 mm), eluted with a mixture of acetonitrile and water at 0.3 mL/min. The elution protocol was as follows: 5% acetonitrile (3 minutes), followed by a gradient from 5% to 80% of acetonitrile in 10 minutes. The corresponding peak of Rhoifolin was integrated, and the concentration was calculated based on a previously established calibration curve. The onset of crystallization is expressed as the point where the solution concentration passes below 95% of its initial value of 100%. The value was obtained by algorithmic curve fitting. […] In this example, and throughout “d” refers to days.
Aqueous solutions of black rice extract were prepared at a concentration of 100 ppm by dissolving dry black rice extract in 99 g of buffer solution (citrate buffer, 100 mM, pH 2.8, 0.2% sodium benzoate) with various additional additives. Then 1 gram of stock solution of rhoifolin in PG at 2000 ppm was added and mixed quickly with the aqueous phase. The samples were left at room temperature, and aliquots were removed over the course of 40 days. A control solution of rhoifolin without black rice or additional additives was also prepared. A solution with black rice, but no additional additive was also prepared. The concentration of the additional additives is 100 ppm in each case. […] Saponin is Quillaja P (Firmenich SA).
Aqueous solutions were prepared in 99 gram of buffer solution (citrate buffer, 100 mM, pH 2.8, 0.2% sodium benzoate) with various additives. Then 1 gram of stock solution of rhoifolin in PG at 2000 ppm was added and mixed quickly with the aqueous phase. The samples were left at room temperature, and aliquots were removed over the course of 40 days. A control solution of rhoifolin without additive was prepared. The concentration of the additives is 100 ppm in each case. […] Saponin is Quillaja P (Firmenich SA).

[3] = Stability of supersaturated naringenin solution (60 ppm): crystallization onset and final concentration
Description: To assess stability performance, the solution concentration of rhoifolin was determined over time. At specific time points 4 g of the solution were sampled, filtered and mixed with 1 g of acetonitrile. The solution was injected into a Vanquish UHPLC from Thermo Scientific coupled with a UV detector. The column was an Accucore Vanquish C18+(1.5 μm, 2.1×100 mm), eluted with a mixture of acetonitrile and water at 0.3 mL/min. The elution protocol was as follows: 5% acetonitrile (3 minutes), followed by a gradient from 5% to 80% of acetonitrile in 10 minutes. The corresponding peak of Rhoifolin was integrated, and the concentration was calculated based on a previously established calibration curve. The onset of crystallization is expressed as the point where the solution concentration passes below 95% of its initial value of 100%. The value was obtained by algorithmic curve fitting. […] In this example, and throughout “d” refers to days. Aqueous solutions of Berry extract were prepared at a concentration of 25 ppm, 50 ppm, 75 ppm, and 100 ppm by dissolving dry Berry extract in 99 g of buffer solution (citrate buffer, 100 mM, pH 2.8, 0.2% sodium benzoate). Then 1 gram of stock solution of naringenin in PG at 6000 ppm was added and mixed quickly with the aqueous phase. The samples were stored at 8° C., and aliquots were removed over the course of 40 days. A control solution of naringenin without Berry extract was also prepared. […] Aqueous solutions of Berry extract were prepared at a concentration of 100 ppm by dissolving dry Berry extract in 99 g of buffer solution (citrate buffer, 100 mM, pH 2.8, 0.2% sodium benzoate) with various additional additives. Then 1 gram of stock solution of naringenin in PG at 6000 ppm was added and mixed quickly with the aqueous phase. The samples were stored at 8° C., and aliquots were removed over the course of five months. A control solution of naringenin without Berry extract or additional additive was also prepared. A solution with Berry extract, but no additional additive was also prepared. The concentration of the additional additives is 100 ppm in each case. […] Saponin is Quillaja P (Firmenich SA). Aqueous solutions of black rice extracts were prepared at a concentration of 100 ppm by dissolving dry black rice extract in 99 g of buffer solution (citrate buffer, 100 mM, pH 2.8, 0.2% sodium benzoate) with various additional additives. Then 1 gram of stock solution of naringenin in PG at 6000 ppm was added and mixed quickly with the aqueous phase. The samples were stored at 8° C., and aliquots were removed over the course of five months. A control solution of naringenin without black rice extract or additional additive was also prepared. A solution with black rice extract, but no additional additive was also prepared. The concentration of the additional additives is 100 ppm in each case. […] Saponin is Quillaja P (Firmenich SA). Aqueous solutions were prepared in 99 gram of buffer solution (citrate buffer, 100 mM, pH 2.8, 0.2% sodium benzoate) with various additives. Then 1 gram of stock solution of naringenin in PG at 6000 ppm was added and mixed quickly with the aqueous phase. The samples were stored at 8° C., and aliquots were removed over the course of 5 months. A control solution of naringenin without additive was prepared. The concentration of the additives is 100 ppm in each case. […] Saponin is Quillaja P (Firmenich SA). Aqueous solutions of Berry extract were prepared at a concentration of 25 ppm by dissolving dry Berry extract in 99 g of buffer solution (citrate buffer, 100 mM, pH 2.8, 0.2% sodium benzoate) with various amounts of added saponin. Then 1 gram of stock solution of naringenin in PG at 6000 ppm was added and mixed quickly with the aqueous phase. The samples were stored at 8° C., and aliquots were removed over the course of five months. A control solution of naringenin without Berry extract or additional additive was also prepared. A solution with Berry extract, but no additional additive was also prepared. […]

[4] = Example 10 control: phloretin 60 ppm without Berry extract, pH 2.8, 8° C., three months
[5] = Example 11 control: phloretin 60 ppm without saponin, 8° C., 5 months
[6] = rhoifolin 20 ppm + 100 ppm additive alone
[7] = rhoifolin 20 ppm + 100 ppm black rice extract + 100 ppm additive
[8] = naringenin 60 ppm + 100 ppm Berry extract + 100 ppm additive, 8° C., five months
[9] = naringenin 60 ppm + 100 ppm additive alone, 8° C., 5 months
[10] = naringenin 60 ppm + 100 ppm black rice extract + 100 ppm additive, 8° C., five months
[11] = Example 2 control: rhoifolin 20 ppm without black rice extract or additive
[12] = Example 3 control: rhoifolin 20 ppm without additive
[13] = control: rhoifolin 20 ppm without extract, pH 2.8, room temperature
[14] = Example 4 control: naringenin 60 ppm without Berry extract, pH 2.8, 8° C., 40 days
[15] = Example 5 control: naringenin 60 ppm without Berry extract or additive, 8° C., five months
[16] = Example 6 control: naringenin 60 ppm without black rice extract or additive, 8° C., five months
[17] = Example 7 control: naringenin 60 ppm without additive, 8° C., 5 months
[18] = Example 8 control: naringenin 60 ppm without Berry extract or additive, 8° C., five months
[19] = Example 9 control: naringenin 60 ppm without saponin, 8° C., five months

Fin. Conc. (ppm) [1, 4]: 33.8 ppm
Onset [1, 4]: 13.6 days
Fin. Conc. (ppm) [1, 5]: 33.8 ppm
Onset [1, 5]: 13.6 days
Compound: O=C(CCc1ccc(O)cc1)c1c(O)cc(O)cc1O [Phloretin, phloretin]

50% [2, 6]: 13.6 days
Fin. Conc. (ppm) [2, 6]: 4.04 ppm
Onset [2, 6]: 7.5 days
50% (d), days for 50% crystallization of rhoifolin [2, 7]: 18.8 days
Fin. Conc. (ppm) [2, 7]: 5.96 ppm
Onset [2, 7]: 10.8 days
Fin. Conc. (ppm) [3, 8]: 34.1 ppm
Onset [3, 8]: 15.8 days
Fin. Conc. (ppm) [3, 9]: 31.0 ppm
Onset [3, 9]: 7.5 days
Fin. Conc. (ppm) [3, 10]: 35.4 ppm
Onset [3, 10]: 18.3 days
Compound: C=C1C[C@@]23CC[C@H]4[C@@](C)(CCC[C@@]4(C)C(=O)O[C@@H]4O[C@H](CO)[C@@H](O)[C@H](O)[C@H]4O)[C@@H]2CC[C@]1(O[C@@H]1O[C@H](CO)[C@@H](O)[C@H](O[C@@H]2O[C@H](CO)[C@@H](O)[C@H](O)[C@H]2O)[C@H]1O[C@@H]1O[C@H](CO)[C@@H](O)[C@H](O)[C@H]1O)C3 [Rebaudioside A, reference compound]

50% (d), days for 50% crystallization of rhoifolin [2, 11]: 8.2 days
Fin. Conc. (ppm) [2, 11]: 3.32 ppm
Onset [2, 11]: 4.1 days
50% [2, 12]: 8.2 days
Fin. Conc. (ppm) [2, 12]: 3.32 ppm
Onset [2, 12]: 4.1 days
Onset (d) of crystallization ([2]; control: rhoifolin 20 ppm without anthocyanin extract, citrate buffer pH 2.8, room temperature): 4.1 days
50% Rem (d), days when only 50% of initial rhoifolin remained in solution [2, 13]: 8.2 days
Fin. Conc. (ppm) of rhoifolin in solution [2, 13]: 3.3 ppm
Compound: C[C@@H]1O[C@@H](O[C@H]2[C@H](Oc3cc(O)c4c(=O)cc(-c5ccc(O)cc5)oc4c3)O[C@H](CO)[C@@H](O)[C@@H]2O)[C@H](O)[C@H](O)[C@H]1O [Rhoifolin, rhoifolin]

Fin. Conc. (ppm) [3, 14]: 24.6 ppm
Onset [3, 14]: 0.3 days
Fin. Conc. (ppm) [3, 15]: 24.6 ppm
Onset [3, 15]: 0.3 days
Fin. Conc. (ppm) [3, 16]: 24.6 ppm
Onset [3, 16]: 0.3 days
Fin. Conc. (ppm) [3, 17]: 24.6 ppm
Onset [3, 17]: 0.3 days
Fin. Conc. (ppm) [3, 18]: 24.6 ppm
Onset [3, 18]: 0.3 days
Fin. Conc. (ppm) [3, 19]: 24.6 ppm
Onset [3, 19]: 0.3 days
Compound: O=C1C[C@@H](c2ccc(O)cc2)Oc2cc(O)cc(O)c21 [Naringenin, naringenin]

Reference: US20230054857A1, “FLAVONOID COMPOSITIONS AND RELATED USES” (Firmenich SA, priority 2020, published 2023)
